Publication PMC3898838, “Design, Synthesis, and Biological Evaluation of an Allosteric Inhibitor of HSET that Targets Cancer Cells with Supernumerary Centrosomes” (Chemistry & Biology, 2013)

Legend:
NHDF cells = assay: SRB growth-inhibition assay; format: cell-based; details: Homo sapiens, 72 hr, 0.3 μM to 400 μM
From the text: (§1) We next assessed whether CW069 could selectively target proliferation in cancer cells. We used a combination of cell-growth-inhibition assays based on the Sulforhodamine-B (SRB) technique ([Vichai and Kirtikara, 2006]) and IncuCyte live-cell imaging. […] This further highlights that HSET inhibition, unlike that of KSP or CENP-E, provides a unique opportunity to selectively damage malignant cells without harming normal cells.
(§2) NHDF cells were obtained from PromoCell, and the N1E-115 and HeLa cells were obtained from ATCC/LGC Standards. The BT549, MCF-7 and MDA-MB-231 cells were kind gifts from the Caldas laboratory (CRUK Cambridge Institute) and were originally obtained from ATCC/LGC. All human cells were verified by STR genotyping and all tested negative for mycoplasma. Cells were cultured in Dulbecco’s modified Eagle’s medium (DMEM) supplemented with 10% fetal calf serum (FCS) at 37°C and 5% CO2. All compounds used in the Sulforhodamine B colorimetric (SRB) assay ([Vichai and Kirtikara, 2006]) were dissolved in DMSO and diluted in culture medium to a final concentration of 0.2% DMSO. For the SRB assay and live-cell imaging (using the IncuCyte Kinetic Live Cell Imaging System; Select Science), cells were seeded in 96-well plates at a density of 2,500 cells per well. […] Fluorescence was quantified using an Infinite 200 PRO plate-reader (Tecan) at a wavelength of 545 nm. […]

N1E-115 cells [1] = assay: SRB growth-inhibition assay; format: cell-based; details: Mus musculus, N1E-115, 72 hr, 0.3 μM to 400 μM
From the text: as §1, §2

N1E-115 cells [2] = assay: Immunofluorescence, mitotic spindle morphology; format: cell-based, mouse; details: 2.5 hr, control 30%
From the text: Using IF, we next examined the mitotic phenotypes induced by CW069 in N1E-115 and NHDF cells, with a strong focus on centrosome numbers and mitotic spindle morphology. Antibodies against α-tubulin, CDK5RAP2, and DAPI were employed to visualize MTs, centrosomes, and DNA, respectively. We hypothesized that small-molecule inhibition of HSET would give rise to mitotic spindle defects similar to those reported after HSET knockdown by siRNA transfection ([Kwon et al., 2008]), and this was indeed the case. […] After treatment, the N1E-115 cells formed multipolar spindles due to a lack of centrosome clustering, consistent with HSET inhibition in cells with supernumerary centrosomes (Figure 4C).
[…] Prewarmed 4% paraformaldehyde in PBS was then added to each well to fix the cells before washing with PBS. Permeabilization and blocking was performed by incubating the slides with 1% BSA, 0.3% Triton X-100, 5% goat serum in PBS (PBS/B/0.3%T+5%GS) for 1 hr while shaking them at room temperature (RT). The slides were incubated with primary antibody solutions (mouse monoclonal anti-α-Tubulin [catalog number T9026; Sigma-Aldrich] and rabbit anti-CDK5RAP2 [catalog number A300-554A; Bethyl Laboratories]) at 4°C for 16 hr. […]

[3] = test system: primary adult human bone marrow cells; assay: Colony-formation (CFU-GM) assay; format: cell-based; details: 85 μM, 100 μM, 150 μM
MDA-MB-231 cells = assay: Immunofluorescence, mitotic spindle morphology; format: cell-based, human; details: MDA-MB-231, 100 μM and 200 μM, 2.5 hr
Description: (§3) […] Prewarmed 4% paraformaldehyde in PBS was then added to each well to fix the cells before washing with PBS. Permeabilization and blocking was performed by incubating the slides with 1% BSA, 0.3% Triton X-100, 5% goat serum in PBS (PBS/B/0.3%T+5%GS) for 1 hr while shaking them at room temperature (RT). The slides were incubated with primary antibody solutions (mouse monoclonal anti-α-Tubulin [catalog number T9026; Sigma-Aldrich] and rabbit anti-CDK5RAP2 [catalog number A300-554A; Bethyl Laboratories]) at 4°C for 16 hr. The slides were washed four times with PBS/B/0.3%T+5%GS and then incubated with secondary antibody solutions (anti-rabbit IgG Alexa Fluor 488 [catalog number A21206] and anti-mouse IgG Alexa Fluor 647 [catalog number A20990]; Invitrogen) and DAPI (catalog number D3571; Invitrogen) in deionized water (300 nM) in the dark at RT for 1 hr. After four washes with PBS/B/0.3%T+5%GS, the solution was replaced with PBS and the slides were stored at 4°C until imaging was performed. Images were gathered with the use of an ICys Research Imaging Cytometer (CompuCyte) or a tandem confocal microscope (Leica).
(§4) (1 picture or pasted object on this page, not shown here)

MCF-7 cells = assay: Immunofluorescence, mitotic spindle morphology; format: cell-based, human; details: MCF-7, 100 μM and 200 μM, 2.5 hr
Description: as §3, §4

BT549 cells = assay: Immunofluorescence, mitotic spindle morphology; format: cell-based, human; details: BT549, 100 μM and 200 μM, 2.5 hr
Description: as §3, §4

N1E-115 cells [4] = assay: IncuCyte live-cell imaging, proliferation; format: cell-based, mouse; details: N1E-115, 100-350 μM; p = 0.0192 control vs 150 μM
From the text: In order to ascertain whether CW069 could more broadly reduce proliferation in a range of cancer cells, we carried out IncuCyte live-cell imaging on N1E-115 cells and BT549 (with lower but marked centrosome amplification) and MCF-7 (with normal centrosome numbers) breast cancer cells. Cells were imaged for 21 hr prior to treatment with DMSO control (0.2%) and various concentrations of CW069, and then imaged for a further 36 hr. […] It could also be due to another direct or indirect effect, and the role of HSET in the survival of cancer cells with normal centrosome numbers remains to be fully understood.
NHDF cells were obtained from PromoCell, and the N1E-115 and HeLa cells were obtained from ATCC/LGC Standards. The BT549, MCF-7 and MDA-MB-231 cells were kind gifts from the Caldas laboratory (CRUK Cambridge Institute) and were originally obtained from ATCC/LGC. All human cells were verified by STR genotyping and all tested negative for mycoplasma. […] Fluorescence was quantified using an Infinite 200 PRO plate-reader (Tecan) at a wavelength of 545 nm. […]
For live-cell imaging, plated cells were imaged prior to treatment for 24 hr and then after treatment for 72 hr. […] Data were analyzed as the percentage of original cell confluency in order to directly compare each compound treatment with the DMSO control.

O=C(O)c1cc(I)ccc1NC(=O)[C@H](Cc1ccccc1)NCc1ccccc1 [CW069]
IC50 (NHDF cells): 181 ± 7 µM | IC50 (N1E-115 cells [1]): 86 ± 10 µM | multipolar spindle formation (N1E-115 cells [2]; N1E-115, 100 μM): 98% | multipolar spindle formation (N1E-115 cells [2]; N1E-115, 200 μM): 86% | clonogenic capacity [3]: did not reduce the clonogenic capacity | multipolar spindles (MDA-MB-231 cells): small but significant increase in multipolar spindles | bipolar spindle formation (MCF-7 cells): did not perturb bipolar spindle formation | multipolar spindles (BT549 cells): increased multipolar spindles | cell proliferation (N1E-115 cells [4]): reduction in cell proliferation
